Data: article PMC3740800, “Lanostane- and cycloartane-type triterpenoids from Abies balsamea oleoresin” (Beilstein Journal of Organic Chemistry, 2013)
pIC50: −log10 of the molar value. ≈ marks a conversion by molar mass, not a printed value.

Experiments:
Assay type in all cases: cell-based
[1] = tested on: S. aureus (ATCC 25923); test: antibacterial microdilution assay, S. aureus; settings: for MIC: Staphylococcus aureus, ATCC25923, 6 h at 37 °C, read-out: MIC against S. aureus
Procedure: (§1) The isolates were evaluated in vitro for their cytotoxic activities against two human cancer cell lines, namely lung carcinoma (A549) and colon adenocarcinoma (DLD-1), as well as against one healthy cell line (WS1) using the resazurin reduction test. Etoposide was used as a positive control (IC50 ≤ 1.0 µM). […] The antibacterial activity of isolated compounds was also evaluated in vitro against E. coli and S. aureus using the microdilution assay with gentamycin as a positive control (MIC < 0.1 µg/mL).
(§2) Antibacterial activity was evaluated using the microdilution method with some modifications. Briefly,
(§3) exponentially growing bacteria were plated in 96-well flat-bottom microplates (BD Falcon) at a density of
(§4) 5 × 103 Gram-negative E. coli (ATCC 25922) or 40 × 103 Gram-positive S. aureus (ATCC 25923) per
(§5) well in 100 μL nutrient broth (Difco). Increasing concentrations of compounds in DMSO (Sigma-Aldrich)
(§6) were then added (100 μL per well). The final concentration of DMSO in the culture medium was
(§7) maintained at 0.25% (v/v) to avoid solvent toxicity. Fifty microliters of 4% resazurin was added to each
(§8) well and the microplates were incubated for 6 h at 37 °C. Absorbance was measured after 6 h on an
(§9) automated 96-well Varioskan plate reader (Thermo-Labsystems) at wavelengths of 600 nm and 660 nm
(§10) for E. coli and S. aureus respectively.

[2] = tested on: lung carcinoma (A549); test: cytotoxicity, resazurin reduction test, A549; settings: Homo sapiens, 48 h incubation, read-out: IC50 (concentration inhibiting 50% of cell growth), A549
Procedure: as §1
(§11) 23-Oxo-3,4-seco-9βH-lanosta-4(28),7-diene-3,26-dioic acid (9): white amorphous solid; [α]22 −26.9° (c
(§12) Cytotoxic activity bioassay
(§13) Lung carcinoma (A549), colon adenocarcinoma (DLD-1) and normal skin fibroblast (WS1) human cell
(§14) lines were purchased from the American Type Culture Collection (ATCC). All cell lines were cultured in […]
(§15) solvent toxicity. Cytotoxicity was assessed using resazurin reduction test on an automated 96-well
(§16) Fluoroskan Ascent F1TM plate reader (Labsystems) using excitation and emission wavelengths of 530 nm
(§17) and 590 nm, respectively. Fluorescence was proportional to the cellular metabolic activity in each well.
(§18) Survival percentages were defined as the fluorescence in experimental wells compared to that in control
(§19) wells after subtraction of blank values. Cytotoxicity results were expressed as mean ± standard deviation […]

[3] = tested on: E. coli (ATCC 25922); test: antibacterial microdilution assay, E. coli; settings: 6 h at 37 °C
Procedure: as §1, §2, §3, §4, §5, §6, §7, §8, §9, §10

[4] = tested on: colon adenocarcinoma (DLD-1); test: cytotoxicity, resazurin reduction test, DLD-1; settings: Homo sapiens, 48 h incubation, read-out: IC50 (concentration inhibiting 50% of cell growth), DLD-1
Procedure: as §1, §11, §12, §13, §14, §15, §16, §17, §18, §19

[5] = tested on: normal skin fibroblast (WS1); test: cytotoxicity, resazurin reduction test, WS1; settings: Homo sapiens, WS1 healthy cell line, 48 h incubation, read-out: IC50 (concentration inhibiting 50% of cell growth), WS1
Procedure: as §1, §11, §12, §13, §14, §15, §16, §17, §18, §19

| Compound | MIC [1] | pIC50 [2] | further results |
| --- | --- | --- | --- |
| C=C(CC(=O)CC(C)C1CCC2(C)C3CCC4C(C)(C)C(O)CCC45CC35CCC12C)C(=O)O (single isomer, unassigned; (+)) [Compound 4, (+)-rel-3α-hydroxy-23-oxocycloart-25(27)-en-26-oic acid] | 25 µM (≈ 11.8 µg/mL) |  |  |
| C=C(C)C1CC=C2C(CCC23C(=C)CCC3(C)C(C)CC(=O)C=C(C)C(=O)O)C1(C)CCC(=O)O (centres unmarked) [Compound 6, abiesonic acid] |  | 4.66 |  |
| C=C(C)C1CC=C2C(CCC23C(=C)CCC3(C)C(C)CC(=O)C=C(C)C(=O)O)C1(C)CCC(=O)OC (single isomer, unassigned; (-)) [Compound 1, (−)-rel-abiesonic acid 3-methyl ester] | 25 µM (≈ 12.4 µg/mL) |  |  |
| gentamycin |  |  | MIC against E. coli (positive control) [3]: < 0.1 µg/mL; MIC against S. aureus (positive control) ([1]; 6 h at 37 °C): < 0.1 µg/mL |
| COc1cc([C@@H]2c3cc4c(cc3[C@@H](O[C@@H]3O[C@@H]5CO[C@@H](C)O[C@H]5[C@H](O)[C@H]3O)[C@H]3COC(=O)[C@H]23)OCO4)cc(OC)c1O [Etoposide] |  | ≥ 6.00 | pIC50 [4]: ≥ 6.00; pIC50 [5]: ≥ 6.00 |
